Among the data in ChEMBL document CHEMBL1133077, “Pyrrolo[3,2-c]pyridine derivatives as inhibitors of platelet aggregation” (Bioorg Med Chem Lett, 2000) are logD and Inhibition values, retold here.

Data set [1] in a line: 1-Octanol/water distribution coefficient measured at 7.4. The data set is classed as physicochemical. Particulars: pH 7.4.
The species entered for a further data set is Homo sapiens. In words: Compound was evaluated for inhibition of ADP-mediated platelet aggregation. In kind it is functional. Further details: concentration or dose not given beside the values.

With `CC1CNC(C)c2cc[nH]c21` (stereo not given), the logD (in general, the decadic logarithm of the distribution of all forms, ionised or not, between an organic phase and buffer at a given pH) in data set [1] was -1.08. The Inhibition (usually the share of the control response that was lost under treatment) in the data set listed under Homo sapiens stood at 26%. In data set [1], `CC1CN(C)C(C)c2cc([N+](=O)[O-])[nH]c21` (stereo not given) gave a logD of 1.14. For the same compound, the Inhibition in the data set listed under Homo sapiens is listed as 3.6%.

The compound `CC1CN(C)C(C)c2cc[nH]c21` (stereo not given) returned a logD in data set [1] of -0.41. This compound also yielded an Inhibition in the data set filed under Homo sapiens of 28.5%. The compound `CC1CN(C)C(C)c2cc(C=O)[nH]c21` (stereo not given) registered a pH-dependent lipophilicity (logD) in data set [1] of 0.69. In the data set listed under Homo sapiens, this compound came in with an Inhibition of 48%.

Compound `C=Cn1ccc2c1CCN(Cc1ccccc1)C2` came in with an Inhibition in the data set listed under Homo sapiens of 38.7%. Take `CCN1CCc2[nH]ccc2C1`: in the data set filed under Homo sapiens, the Inhibition is listed as 23.7%. The same measure, in the same setting: to `CC1CN(C)C(C)c2cc(CO)[nH]c21` (stereo not given) belongs 3.3%; to `CC1CN(C)C(C)c2cc(/C=N/CCO)[nH]c21` (stereo not given), 12.2%. Take `c1ccc(CN2CCc3[nH]ccc3C2)cc1`: the pH-dependent lipophilicity (logD) in data set [1] is 1.59. The Inhibition in the data set filed under Homo sapiens came out at 46.5%.

In the data set filed under Homo sapiens, `Clc1ccccc1CN1CCc2sccc2C1` [TICLOPIDINE] had an Inhibition of 48.5%.
